According to US12564580B2, “Mitochondria-targeted isoketal/isolevuglandin scavengers and uses thereof” (Vanderbilt University, priority 2020, dated 2026):

What was measured:
aortic superoxide = test: Aortic superoxide by HPLC (mitoSOX, DHE) in angiotensin II-infused mice; format: in vivo, mouse
Method: (§1) FIGS. 12A-D show the effect of mito2HOBA supplementation on mitochondrial superoxide (A), vascular superoxide (B), endothelial nitric oxide (C) and endothelial-dependent relaxation (D) in angiotensin II-infused mice. Mitochondrial and vascular O2⋅ was measured by mitochondria-targeted superoxide probe mitoSOX (1 μM) or untargeted superoxide probe DHE (50 μM) using HPLC.46 Endothelial nitric oxide was analyzed by NO spin trap Fe(DETC)2 and ESR.47 C57B1/6J mice were infused with Ang II and mito2HOBA was provided in the drinking water (0.1 g/L). […] Results are mean±SEM. *P<0.01 vs Sham, **P<0.01 vs Ang II (n=6).
Mouse aortic segments were loaded with DHE (50 μM) or mitochondria-targeted mitoSOX (1 μM) in KHB buffer by 30-minute incubation in a tissue culture incubator at 37° C. […] The tissue homogenate was passed through a 0.22 μm syringe filter and methanol filtrates were analyzed by HPLC according to previously published protocols. The superoxide specific product 2-hydroxyethidium was detected using a C-18 reverse-phase column (Nucleosil 250 to 4.5 mm) and a mobile phase containing 0.1% trifluoroacetic acid and an acetonitrile gradient (from 37% to 47%) at a flow rate of 0.5 ml/min. 2-Hydroxyethidium was quantified by fluorescence detector using an emission wavelength of 580 nm and an excitation of 480 nm as described previously.

endothelial nitric oxide = test: Aortic nitric oxide by ESR and Fe(DETC)2 in angiotensin II-infused mice; format: in vivo, mouse; settings: Ang II plus mito2HOBA
Method: as §1
Nitric oxide production in aortas was quantified by ESR and colloid Fe(DETC)2 as we have described previously. All ESR samples were placed in quartz Dewar (Corning, New York, NY) filled with liquid nitrogen. ESR spectra were recorded using an EMX ESR spectrometer (Bruker Biospin Corp., Billerica, MA) and a super high Q microwave cavity. The ESR settings were as follows: field sweep, 160 Gauss; microwave frequency, 9.42 GHz; microwave power, 10 milliwatts; modulation amplitude, 3 Gauss; scan time, […]; time constant, 5.2 sec; and receiver gain, 60 dB (n=4 scans).

[1] = Mass spectrometric analysis of mitochondria from mice given mito2HOBA in drinking water; format: in vivo
Description: Mito2HOBA is a water-soluble compound which can be supplied in the media and provided to animals in the drinking water.

mPTP = format: in vivo; settings: treatment of Ang II-infused mice with mito2HOBA
[2] = test system: C57Bl/6J mice, Ang II-induced hypertension; test: Blood pressure in angiotensin II model of hypertension (tail-cuff and telemetry); format: in vivo, mouse
Description: FIGS. 10A-D show the effect of mito2HOBA on angiotensin II-induced hypertension and accumulation of mitochondrial isoLGs protein adducts. (A) Blood pressure tail-cuff measurements in male Sham or angiotensin II-infused mice supplied with mito2HOBA in drinking water (0.1 g/L) or equimolar amount of untargeted analog 2HOBA (0.17 mmol/L). (B) Telemetry studies of blood pressure in angiotensin II-infused mice supplied with mito2HOBA or plain water as a vehicle. (C) Representative LC/MS/MS chromatograms of isoLG-Lysyl-Lactam adduct; (D) isoLG-Lys-Lactam levels in kidney mitochondria isolated from Sham or angiotensin II-infused mice supplied with mito2HOBA. Results are mean±SEM. *P<0.01 vs Sham, **P<0.01 vs Ang II (n=8).
Hypertension was induced by angiotensin II ([…]) as described previously. To test the therapeutic potential of scavenging of mitochondrial isoLGs, wild-type C57B1/6J male and female mice (Jackson Labs) received saline or angiotensin II minipump placement, and provided with the plain water (vehicle) or mito2HOBA in the drinking water (0.1 g/liter). Blood pressure was monitored by the telemetry and tail-cuff measurements as previously described. The Vanderbilt Institutional Animal Care and Use Committee approved the procedures (Protocol M1700207). Simple randomization was used to select animals for sham, angiotensin II or mito2HOBA groups for equal chance of being allocated to treatment groups.
To test a functional role of mitochondrial isoLGs in hypertension, we used an Ang II model of hypertension, and monitored blood pressure by tail-cuff (FIG. 10A) and telemetry (FIG. 10B). […] Infusion of wild-type C57B1/6J mice with Ang II (0.7 mg/kg/day) increased systolic blood pressure to 162 mm Hg.

kidney mitochondria = test: Respiration of kidney mitochondria isolated from mito2HOBA and LPS treated mice; format: in vivo, mouse
Method: To study the mitochondrial function, the combination of glutamate and malate (GM) or succinate was used as substrates. Since glutamate can be converted via transamination to α-ketoglutarate and further to succinate, the present inventors used complex II inhibitor malonate to define specific complex I respiration. The basal respiration (1) was measured in mitochondria supplemented with respiratory substrates. Then ADP was added to measure the coupled respiration (2). The proton leak (3) was determined after addition of complex V inhibitor oligomycin A. The uncoupled respiration (4) was measured after supplementation with CCCP. Finally, antimycin A plus rotenone were added to assess non-mitochondrial respiration (5) as described previously [32].
In order to define specific alterations in the mitochondrial respiration in LPS model of sepsis and test the potential protection by mito2HOBA the present inventors adopted the Seahorse protocol for mitochondrial studies in the presence of mitochondrial substrates Glutamate+Malate (GM) or succinate. To define the specific role of complex I mediated respiration the present inventors performed measurements in the presence of complex II inhibitor malonate (5 mM). The present inventors measured basal respiration in the presence of mitochondria plus substrates, coupled respiration after addition of ADP (2 mM), proton leak following addition of oligomycin A (2.5 μM) uncoupled respiration after supplementation of CCCP (1 μM) and non-mitochondrial respiration with mixture of antimycin A and rotenone (1 μM) Mitochondrial studies where independently verified in two labs using Oroboros O2k high-resolution respirometry and Fluorescence Lifetime Micro Oxygen Monitoring System (Instech Laboratories, Inc). Kidney mitochondria were isolated from control sham mice, LPS-injected mice (25 μg/g, 16 hours post-injection), mito2HOBA supplemented mice (0.1 g/Liter drinking water, 4 days), or mito2HOBA plus LPS (0.1 g/Liter mito2HOBA for 3 days plus LPS injection).

[3] = test system: human aortic endothelial cells (HAEC); test: Cardiolipin oxidation in human aortic endothelial cells stimulated with angiotensin II plus TNFα (LC/MS); format: cell-based; settings: 50 nM
Method: FIGS. 9A and B show the effect of mito2HOBA on mitochondrial superoxide and cardiolipin oxidation in human aortic endothelial cells induced by angiotensin II plus TNFα. (A) Mitochondrial superoxide was measured by HPLC analysis of mitoSOX-superoxide specific product, mito-2-hydroxyethidium (Mito-2OH-Et+). […] (B) Cardiolipin oxidation induced by Angiotensin II+TNFα measured my LC/MS. […] Data are mean±SEM. *P<0.01 vs Control, **P<0.01 vs Angiotensin II+TNFα (n=4).
Cardiolipin oxidation in human aortic endothelial cells was measured by Liquid Chromatography-Mass Spectrometry (LC/MS) as described previously.^44 The extracted lipid fraction was separated online by UPLC using a Waters Acquity UPLC system (Waters Corp., Milford, MA). Mass Spectrometry analysis was performed on a Thermo Quantum Ultra triple quadrupole mass spectrometer (Thermo Scientific Inc., San Jose, CA, USA).
Human aortic endothelial cells (HAEC) were purchased from Lonza (Chicago, IL) and cultured in EGM-2 medium supplemented with 2% FBS but without antibiotics. On the day before the study, the FBS concentration was reduced to 1%.

[4] = kidney and heart mitochondria, drinking water 0.1 g/L for 5-days
[5] = LPS 25 μg/g plus mito2HOBA 0.1 g/L
[6] = mito2HOBA alone, 0.1 g/L drinking water, 4 days

Compound: NCc1ccc(OCCCC[P+](c2ccccc2)(c2ccccc2)c2ccccc2)cc1O [mito2HOBA]
- aortic cellular superoxide (aortic superoxide; DHE, % compared to Sham control, Ang II plus mito2HOBA (Ang II alone 217%)): 152%
- increase in aortic mitochondrial superoxide (aortic superoxide; mitoSOX, Ang II plus mito2HOBA): completely prevented
- endothelial nitric oxide (endothelial nitric oxide): completely prevented the decline
- level in the mitochondrial fraction [1, 4]: μM levels
- share accumulated in the mitochondrial fraction [1, 4]: 80%
- accumulation in the mitochondria of multiple organs ([1]; kidney, heart and liver): robustly accumulated
- renal mitochondrial Ca2+-retention capacity (mPTP): completely prevented decline
- systolic blood pressure ([2]; Ang II 0.7 mg/kg/day, mito2HOBA 0.1 g/L drinking water, tail-cuff and telemetry (Ang II alone 162)): 140 mm Hg
- blood pressure in control mice ([2]; mito2HOBA alone, no Ang II): did not affect
- LPS-induced impairment of GM-mediated respiration (kidney mitochondria; [5]): significantly protected
- LPS-induced impairment of complex I-specific oxygen consumption in the presence of GM+malonate (kidney mitochondria; [5]): significantly protected
- mitochondrial protein leak (kidney mitochondria; [5]): did not affect
- succinate mediated respiration (kidney mitochondria; [5]): did not affect
- complex I-specific oxygen consumption in the presence of GM+malonate (kidney mitochondria; [6]): improved
- succinate-driven respiration (kidney mitochondria; [6]): slightly reduced
- cardiolipin oxidation [3]: inhibited
